Reference: US20250281621A1, “GPC3 APTAMERS AND VARIANTS AND USE THEREOF” (Guardian Therapeutics, LLC, priority 2020, published 2025)
Where a name gives a salt, the structure may show the parent alone.

Experiments:
NCI-H446 xenograft = conditions: 40 mg/kg, I.P. QD for 28 days
Hep3B xenograft = conditions: 30 mg/kg, oral, QD 28 days
Glypican-3 (GPC3) = Glypican-3 (GPC3) (UniProt P51654;P51654 P51654:25-358,P51654:359-554); test: assay and GPC3 source not stated; fusion does not affect GPC3 binding; conditions: tags: recombinant GPC3 used for SELEX; source inferred for kinetic assay

CCc1c2c(nc3ccc(OC(=O)N4CCC(N5CCCCC5)CC4)cc13)-c1cc3c(c(=O)n1C2)COC(=O)[C@]3(O)CC [Irinotecan, irinotecan]
% of body weight loss (Day 29) (NCI-H446 xenograft): −5.29%

CNC(=O)c1cc(Oc2ccc(NC(=O)Nc3ccc(Cl)c(C(F)(F)F)c3)cc2)ccn1 [Sorafenib Tosylate]
% of body weight loss (Day 28) (Hep3B xenograft): 9.33%

B1: GRX51 (CpG7909-GRX49 fusion) (mixed)
mixed: TCGTCGTTTTGTCGTTTTGTCGTTCGUCAUCGGGUUGCUACCCAAGGCCAGGAGGCGAUGACG
modifications: PS DNA CpG7909 portion, 2'-OMe aptamer portion
IC50 (Glypican-3 (GPC3)): 32.7 nM
